Data set [1] concerns histamine induced bronchospasm. The data set can be described thus: Bronchospasmolytic effect in anaesthetized cat (simultaneous recording). To be noted: narcotized cat, i.v. (brachial vein); based on molar dose giving 30 % decrease of histamine induced bronchospasm; terbutaline = 1. Format: in vivo. As to the method: (§1) A. Simultaneous recording of bronchospasmolytic effect, tremorogenic effect and heart stimulating effect
(§2) The bronchospasmolytic effect and the tremorogenic effect were measured simultaneously in anaesthetized cat.
(§3) The method used is described in detail by 0 A T Olsson, Acta pharmacol et toxicol 34, 106-114 (1974).
(§4) Cats weighing 2.5-3.5 kg are anaesthetized with pento- barbital (mebumalum NFN) at first by an intraperitoneal injection (30 mg/kg) and afterwards by continuous intravenous infusion to keep the level of anaesthesia constant during the experiment.
The trachea is cannulated and the lungs inflated with room air by means of a constant volume Braun-respirator. The frequency is 15-20 per min and the tidal volume 8-10 ml per kg, or just sufficient to suppress spontaneous breathing movements and to give about 150 ml/kg/min. The change in tidal volume from administered constricting agents is measured as the amount of air overflow from the delivery of a constant volume to a fixed respiration. The pressure is determined by a water (60-70 mm) pressure threshold and respiratory overflow determined by means of a Grass-volumetric pressure transducer PT 5A. Bronchial tone is increased by inhalation of a histamine aerosol generated in a Roth-Petersen nebulizer from a solution containing 0.1-0.3 mg/ml of histamine and made up to 5 % by glycerol. The nebulizer is connected to the inlet of the respirator when bronchospasm is to be produced. When the respiratory overflow has reached an even level, .the compound to be tested for bronchorealxing activity is injected into the brachial vein.
(§5) The bronchospasmolytic effect is measured as the dose, calculated in moles per kg bodyweight of the test animal, which gives 30 % decrease of the histamine induced bronchospasm. […] The heart stimulating effect is measured as the dose, calculated in moles per kg bodyweight of the test animal, which gives 25 % increase in the heart frequency.

In data set [2] the test system is electrically induced contractions of the soleus muscle. The data set can be described thus: Tremorogenic effect in anaesthetized cat (soleus muscle, simultaneous recording). The class given is in vivo. Conditions: narcotized cat, i.v.; based on molar dose giving 30 % decrease of electrically induced soleus contractions; terbutaline = 1. Here is the method: as §1, §2, §3, §4
The soleus muscle in the hind limb, consisting mainly a -slow contracting fibres, is prepared essentially according to Bowman & Zaimis, J Physiol 144, 92-107 (1958). The muscle is enclosed in a chamber made of a rubbercovered plastic "hair-curler". The entire leg is wrapped in metal foil covered with plastic to keep the temperature constant at 35-36°C (controlled by thermo couples in the.leg). The cat is placed on its back on a thermostatically controlled operation table and the right hind limb fixed, special care being taken not to impede the blood flow.The tendon is cut and attached to a Grass strain gauge (FT 10C). The isometric tension of the muscle is calibrated to 50 g (resting tension) and 500 g (maximal tension). A plexiglas shielded bipolar Pt-electrode is placed on the tibialis nerve, near the soleus. The incomplete tetanic contractions of the muscle are elicited by a square wave pulse stimulation of the nerve by the use of a Grass S48 stimulator. The pulse duration is 0.05 msec, with frequencies selected in the range 8-12 Hz and the strength between 5-8. volts. The stimulation occurs for 1.8 sec every 20 sec.
as §5

The test system of data set [3] is heart frequency. The data set can be described thus: Heart stimulating effect in anaesthetized cat (simultaneous recording). The class given is in vivo. As to the method: as §1, §3, §4
Arterial blood pressure is measured with a Statham transducer from a cannulated carotid artery. Heart frequency is monitored by means of a tachometer set to trigger off the R-wave of the electro-cardiogram.
as §5

In data set [4] the test system is histamine induced bronchoconstriction. The data set can be described thus: Onset and duration of bronchospasmolytic activity after oral administration, histamine aerosol, unanaesthetized guinea-pigs. Format: in vivo. To be noted: result in words. As to the method: These compounds have the structural formulas [drawing 91] (Compound of Example 1) [drawing 92] (Compound of Example 4) The bronchospasmolytic effect was tested as the inhibitory effect on histamine induced bronchoconstriction in unanaesthetized guinea-pigs. The test animals were exposed to a histamine mist generated by a Roth-Petersen nebulizer from a solution of 0.3 mg/ml of histamine-chloride. Guinea-pigs, strain Dunkin-Hartley, both sexes, 160-230 g were used. Saline treated control animals start a forced and irregular breathing after less than 4 minutes exposure to the aerosol. Drug-treated animals sustaining the histamine aerosol 4 minutes without a breathing influence are regarded as protected. The animals were starved for about 15 hours with water ad libitum before the test compound was administered by a stomach tube. Each of the test substances was given in an amount of 4.10^-6 mole/kg bodyweight. Groups of 8-10 animals were tested in the aerosol at 7, 15, 30, 60 and 120 minutes after administration of the test substance. The percentage of the animals which could withstand the aerosol for 4 minutes and for 10 minutes was determined.

For data set [5] the test system is unchanged. The data set can be described thus: Bronchospasmolytic activity at oral and subcutaneous administration, histamine aerosol, unanaesthetized guinea-pigs. The class given is in vivo. To be noted: Cavia porcellus, read-out: Dose protecting 50 % of the test animals against the histamine aerosol during more than 4 minutes (ED50). As to the method:
.The bronchospasmolytic activity of a compound of the invention at oral administration was tested on guinea-pigs. The compound according to Example 1 having the code designation D 2343, was tested. Terbutaline was used as reference substance.
The bronchospasmolytic effect was tested as the inhibitory effect on histamine induced bronchoconstriction in unanaesthetized guinea-pigs.
The test animals were exposed to a histamine mist generated by a Roth-Petersen nebulizer from a solution of 0.3 mg/ml of histamine-chloride.
Guinea-pigs, strain Dunkin-Hartle.y, both sexes, 190-250 g were used. Saline treated control animals start a forced and irregular breathing after less than 4 minutes exposure to the aerosol. Drug-treated animals sustaining the histamine aerosol 4 minutes without a breathing influence are regarded as protected. In the study with oral administration, the animals were starved for about 15 hours with water ad libitum before D 2343 or terbutaline was administered by a stomach tube.
Each compound was administered to 30-40 animals.
In the investigation with oral administration the time from drug administration to exposure of the animal to histamine was 30 minutes.
The ED50 doses are calculated on molar basis in moles per kg bodyweight of the test animal.

The target in data set [6] is a-receptor. The data set can be described thus: a-receptor blocking activity, noradrenaline-induced contraction of rabbit aortic strips. Further details: species or system Albino rabbits. Conditions: rabbit aortic strips, compound added 10 minutes before noradrenaline; called EC 50; 6 preparations from 3 animals; read-out: Concentration inhibiting 50 % noradrenaline-induced contraction. An excerpt:
The a-receptor blocking activity of two compounds of the invention was investigated. This effect is relevant in the treatment of asthma. It has been shown, e.g. by Nousiainen et al, Pharmacology 15, 469-477 (1977), that certain compounds having a-blocking effect may potentiate the effects of S-receptor-stimulating agents such as terbutaline.
In the test, the a-receptor blocking substance thymoxamine was used as reference.
Albino rabbits of both sexes (2-3 kg) were used. About 5 cm of the aorta was dissected out as near the arch as possible, transferred to a dish with Krebs solution and cut spirally. Usually 3 preparations were received from the dissected piece of vessel. Each strip was mounted in an organ bath in Krebs solution of 37°C and aerated with carbogen. The load on the preparation was 2 g and the tension changes recorded isometrically on Grass transducer FR03 and polygraph P5.
Noradrenaline, which is a strong a-receptor stimulating agent, exerts a contracting effect on the aortic strips when added to the bath. The a-receptor blocking effect of the test compound is measured by adding the test compound to the organ bath before adding nor-adrenaline.
Noradrenaline solution with a concentration producing 70-80 % of maximal contraction (0.03-0.06 µg/ml) was used. The test compound was added to the organ bath 10 minutes before the addition of noradrenaline.
The results are measured as the concentration of the test compound which inhibits the noradrenaline-induced contraction by 50 % (EC 50).
The EC 50 values are based on tests on 6 preparations obtained from 3 animals.

From patent publication EP0004835A1, “Ethanolamine compounds, processes for their preparation, pharmaceutical preparations containing them and their medicinal use” (priority 1978, dated 1979) come the findings set out here.

Structures can show the parent of a compound that is named as a salt. Where two headings read alike, the source gives them in different places.

For `COc1ccccc1CCC(C)(C)NCC(O)c1ccc(OC(=O)C(C)(C)C)cc1` (centres unmarked) [D 2367, 1-[4-Pivaloyloxy-phenyl]-2-[1,1-dimethyl-3-(2-methoxyphenyl)propylaminolethanol sulfate], in data set [1], the “Bronchospasmolytic effect in relation to the bronchospasmolytic effect of terbutaline” value (“Bronchospasmolytic effect in relation” for short) came out at 0.28±0.07. In data set [2], the “Tremorogenic effect in relation to the tremorogenic effect of terbutaline” value (“Tremorogenic effect in relation” below) turned out to be 0.23 ±0.07. In data set [3] (cat, in vivo, iv), the “Heart stimulating effect in relation to the heart stimulating effect of terbutaline” value (“Heart stimulating effect in relation” for short) came out at 0.16±0.05. Moreover, the “duration of bronchospasmolytic activity” value in data set [4] is recorded as “considerably prolonged compared to the duration of the compound of example 1”.
`COc1ccccc1CC(C)(C)NCC(O)c1ccc(O)cc1` (centres unmarked) [D 2331, 1-(4-Hydroxyphenyl)-2-[1,1-dimethyl--2-(2-methoxyphenyl)ethylaminol]ethanol sulfate]: the “Bronchospasmolytic effect in relation” value in data set [1] is recorded as 0.12±0.03. Besides, the “Tremorogenic effect in relation” value in data set [2] is 0.011±0.004. Further, the “Heart stimulating effect in relation” value in data set [3] (narcotized cat, i.v., based on molar dose giving 25 % increase in heart frequency, terbutaline = 1) came to 0.02.
As for `CCOc1ccccc1CCC(C)(C)NCC(O)c1ccc(O)cc1` (centres unmarked) [D 2388, 1-(4-hydroxyphenyl)-2-[1,1--dimethyl-3-(2-ethoxyphenyl)propylamino]-ethanol hydrochloride], the “Bronchospasmolytic effect in relation” value in data set [1] is 1.4±0.2. Further, the “Tremorogenic effect in relation” value in data set [2] worked out at 0.8±0.2. Further, the “Heart stimulating effect in relation” value in data set [3] (cat, in vivo, iv) is listed as 1.
As a reminder, the ED50 is the dose that gives a 50% effect, or the effect in half of the subjects. For the molecule `CC(C)(C)NCC(O)c1cc(O)cc(O)c1` (centres unmarked) [Terbutaline, terbutaline, reference compound], the “Bronchospasmolytic effect in relation” value in data set [1] was determined as 1. In data set [2], the “Tremorogenic effect in relation” value turned out to be 1. Also, the “Heart stimulating effect in relation” value in data set [3] (cat, in vivo, iv) came to 1. Further, the ED50 worked out at 5.28 ± 0.86 µmol/kg in data set [5] (0.5 h, Oral administration (stomach tube, starved), 30 minutes before histamine) and 0.93 ± 0.14 µmol/kg in data set [5] (sc, 0.25 h, Subcutaneous administration, 15 minutes before histamine challenge).
Take `CC(=O)Oc1cc(C(C)C)c(OCCN(C)C)cc1C` [Thymoxamine, thymoxamine, reference compound]: the IC50 in data set [6] came out at 1.5 ± 0.4 µM.
For the molecule `COc1ccccc1CC(C)(C)NCC(O)c1ccc(O)cc1` (centres unmarked) [[drawing]], the IC50 in data set [6] was found to be 0.5 ± 0.2 µM.
Consider `COc1ccccc1CCC(C)(C)NCC(O)c1ccc(OC(=O)c2ccc(C)cc2)cc1` (centres unmarked) [D 2375, 1-[4-(4-Methylbenzoyloxy)--phenyl]-2-[1,1-dimethyl-3-(2-methoxyphenyl)propylaminolethanol sulfate], for which, in data set [1], the “Bronchospasmolytic effect in relation” value stood at 0.25±0.05. Moreover, in data set [2], the “Tremorogenic effect in relation” value is on record as 0.18 ±0.03. In data set [3] (cat, in vivo, iv), the “Heart stimulating effect in relation” value came to 0.26±0.04.
